Where two headings read alike, the source gives them in different places.
Legend:
Assay in all cases: Resazurin reduction cell viability assay
Format in all cases: cell-based, human
[1] = system: PC3
Experimental: (§1) Solid tumor cell lines were seeded in 100 μl medium into 96-well plates at an appropriate cell number determined by a cell dilution assay (Cal51–2000 cells/well; Colo205, MCF10A and 184A1–3000 cells/well and MDA-MB-468, HCC1954–4000 cells/well). AML suspension cells were seeded in 96-well plates at approximately 3000 cells per well. Cells were incubated overnight at 37°C, 5% CO2. The following day, 100 μl fresh medium containing increasing concentrations of appropriate compound was added and the cells were incubated for up to 72 h at 37°C, 5% CO2. For pulse treatment of solid (adherent) tumor cell lines, medium was aspirated and replaced with fresh drug-free medium. For pulse treatment of suspension lines, plates were centrifuged at 478 xg for 5 min at the end of the incubation period with compound, medium containing compound was carefully aspirated and replaced with fresh compound-free medium. A total of 72 h after the start of treatment, 20 μl of a 10X stock of resazurin sodium salt (Sigma-Aldrich, Dorset, UK) prepared in medium was added to the cells and incubated for up to 3 h. […] was measured on the Wallac Victor plate reader (Cambridge, UK) at 544–595 nm. IC50/70/90 calculations were determined in XLFit.

[2] = system: Colo205; settings: Homo sapiens, COLO 205, 72 h, 72 h continuous treatment; read-out: Colo205 IC50 ± SD
Experimental: as §1

[3] = system: HEL
Experimental: as §1

[4] = system: MV4-11
Experimental: as §1

[5] = system: PL21
Experimental: as §1

[6] = system: OCI-AML2
Experimental: as §1

[7] = system: MCF10A
Experimental: as §1

With `CC[C@H](Nc1nc(NCc2cnc(C)cc2C)c2ncn(C(C)C)c2n1)[C@@H](C)O` [Fadraciclib, 2-pentanol, 3-[[6-[[(4,6-dimethyl-3-pyridinyl)methyl]amino]-9-(1-methylethyl)-9Hpurin-2-yl]amino]-, (2R,3S)] the “sensitivity, 6 h pulse versus continuous 72 h” value [1] was “sensitive to fadraciclib only after more prolonged treatment”, the IC50 [2] was 310 nM and the IC50 ([3]; Homo sapiens, 72 h, 72 h continuous, read-out: 72 h continuous IC50 ± SD) was 0.53 ± 0.2 µM. For the same compound, the IC50 ([3]; Homo sapiens, read-out: 6 h pulse IC50 ± SD, HEL, 6 h pulse then 66 h release) was 5.12 µM, the IC50 ([3]; read-out: 6 h pulse IC50 ± SD, 6 h pulse then 66 h release) was 5.11 ± 0.88 µM and the IC50 ([4]; Homo sapiens, MV4-11, 72 h, MV4-11, 72 h continuous, read-out: 72 h continuous IC50 ± SD) was 260 ± 80 nM. The IC50 ([4]; Homo sapiens, MV4-11, read-out: 6 h pulse IC50 ± SD, MV4-11, 6 h pulse then 66 h release) was 500 nM, the IC90 ([4]; Homo sapiens, MV4-11, 6 h pulse then 66 h release) was 920 nM and the IC50 ([4]; read-out: 6 h pulse IC50 ± SD, MV4-11, 6 h pulse then 66 h release) was 510 ± 40 nM. For the same compound, the IC50 ([5]; Homo sapiens, PL-21, 72 h, PL21, 72 h continuous, read-out: 72 h continuous IC50 ± SD) was 340 ± 90 nM, the IC90 ([5]; Homo sapiens, PL-21, PL21, 6 h pulse then 66 h release) was 9.92 µM and the IC50 ([5]; Homo sapiens, PL-21, read-out: 6 h pulse IC50 ± SD, PL21, 6 h pulse then 66 h release) was 2550 nM. The IC50 ([5]; read-out: 6 h pulse IC50 ± SD, PL21, 6 h pulse then 66 h release) was 2540 ± 2710 nM, the IC50 ([6]; Homo sapiens, OCI-AML2, 72 h, OCI-AML2, 72 h continuous, read-out: 72 h continuous IC50 ± SD) was 220 ± 30 nM and the IC50 ([6]; Homo sapiens, OCI-AML2, read-out: 6 h pulse IC50 ± SD, OCI-AML2, 6 h pulse then 66 h release) was 530 nM. For the same compound, the IC90 ([6]; Homo sapiens, OCI-AML2, 6 h pulse then 66 h release) was 1800 nM, the IC50 ([6]; read-out: 6 h pulse IC50 ± SD, OCI-AML2, 6 h pulse then 66 h release) was 550 ± 70 nM and the IC50 ([7]; Homo sapiens, MCF-10A, 72 h, MCF10A, continuous 72 h, read-out: continuous IC50 ± SD) was 0.4 ± 0.03 µM. For the same compound, the IC50 ([7]; Homo sapiens, MCF-10A, read-out: 8 h pulse IC50 ± SD, MCF10A (non-malignant), 8 h pulse, read at 72 h) was 3.9 µM and the IC50 ([7]; read-out: 8 h pulse IC50 ± SD, MCF10A (non-malignant), 8 h pulse, read at 72 h) was 3.89 ± 1.04 µM.

Reference: paper PMC7347136 (PLoS ONE, 2020)
